# Reference: ChEMBL document CHEMBL1143083, “Potent triazolyl-proline-based inhibitors of HCV NS3 protease” (Bioorg Med Chem Lett, 2008)
# What was measured:
# [1] = tested on: Hepatitis C virus; test: Antiviral activity against HCV in human Huh7 cells after 72 hrs by cell based luciferase reporter assay; assay type: functional, organism-based, Hepacivirus hominis; conditions: Huh-7, 72 h
# [2] = Inhibition of HCV NS3 protease; parameters: species or system Hepacivirus hominis
Compound,EC50 [1] [nM],IC50 [2] [nM]
C=C[C@@H]1C[C@]1(NC(=O)[C@@H]1C[C@@H](n2cc(C3CCCCC3)nn2)CN1C(=O)[C@@H](NC(=O)OC1CCCC1)C(C)(C)C)C(=O)O,,4300
C=C[C@@H]1C[C@]1(NC(=O)[C@@H]1C[C@@H](n2ccnn2)CN1C(=O)[C@@H](NC(=O)OC1CCCC1)C(C)(C)C)C(=O)O,,59000
C=C[C@@H]1C[C@]1(NC(=O)[C@@H]1C[C@@H](n2cc(-c3ccc(-c4ccccc4)cc3)nn2)CN1C(=O)[C@@H](NC(=O)OC1CCCC1)C(C)(C)C)C(=O)O,,860
C=C[C@@H]1C[C@]1(NC(=O)[C@@H]1C[C@@H](n2cc(-c3ccc(OC)cc3)nn2)CN1C(=O)[C@@H](NC(=O)OC1CCCC1)C(C)(C)C)C(=O)O,,360
C=C[C@@H]1C[C@]1(NC(=O)[C@@H]1C[C@@H](n2cc(-c3cccc4ccccc34)nn2)CN1C(=O)[C@@H](NC(=O)OC1CCCC1)C(C)(C)C)C(=O)O,,890
C=C[C@@H]1C[C@]1(NC(=O)[C@@H]1C[C@@H](n2cc(-c3ccc(Cl)cc3)nn2)CN1C(=O)[C@@H](NC(=O)OC1CCCC1)C(C)(C)C)C(=O)O,,790
C=C[C@@H]1C[C@]1(NC(=O)[C@@H]1C[C@@H](n2cc(-c3cc(Br)cc(Br)c3)nn2)CN1C(=O)[C@@H](NC(=O)NC1CCCC1)C(C)(C)C)C(=O)NS(=O)(=O)C1CC1,105,
C=C[C@@H]1C[C@]1(NC(=O)[C@@H]1C[C@@H](n2cc(-c3ccccn3)nn2)CN1C(=O)[C@@H](NC(=O)OC1CCCC1)C(C)(C)C)C(=O)O,,3700
C=C[C@@H]1C[C@]1(NC(=O)[C@@H]1C[C@@H](n2nncc2-c2ccccc2)CN1C(=O)[C@@H](NC(=O)OC1CCCC1)C(C)(C)C)C(=O)O,,14000
C=C[C@@H]1C[C@]1(NC(=O)[C@@H]1C[C@@H](n2cc(-c3ccccc3)nn2)CN1C(=O)[C@@H](NC(=O)OC1CCCC1)C(C)(C)C)C(=O)O,,700
C=C[C@@H]1C[C@]1(NC(=O)[C@@H]1C[C@@H](n2cc(-c3cc(Br)cc(Br)c3)nn2)CN1C(=O)[C@@H](NC(=O)OC1CCCC1)C(C)(C)C)C(=O)NS(=O)(=O)C1(C)CC1,77,

# The next lines start with the values.
EC50 [1] [nM],IC50 [2] [nM],Compound
550,14,C=C[C@@H]1C[C@]1(NC(=O)[C@@H]1C[C@@H](Oc2cc(-c3ccccc3)nc3cc(OC)ccc23)CN1C(=O)[C@@H](NC(=O)OC1CCCC1)C(C)(C)C)C(=O)O
680,< 3,C=C[C@@H]1C[C@]1(NC(=O)[C@@H]1C[C@@H](n2cc(-c3ccc(Cl)cc3)nn2)CN1C(=O)[C@@H](NC(=O)OC1CCCC1)C(C)(C)C)C(=O)NS(=O)(=O)C1CC1
1220,< 3,C=C[C@@H]1C[C@]1(NC(=O)[C@@H]1C[C@@H](n2cc(-c3ccsc3)nn2)CN1C(=O)[C@@H](NC(=O)OC1CCCC1)C(C)(C)C)C(=O)NS(=O)(=O)C1CC1
140,< 3,C=C[C@@H]1C[C@]1(NC(=O)[C@@H]1C[C@@H](n2cc(-c3cc(Cl)cc(Cl)c3)nn2)CN1C(=O)[C@@H](NC(=O)OC1CCCC1)C(C)(C)C)C(=O)NS(=O)(=O)C1CC1
150,< 3,C=C[C@@H]1C[C@]1(NC(=O)[C@@H]1C[C@@H](n2cc(-c3cc(Br)cc(Br)c3)nn2)CN1C(=O)[C@@H](NC(=O)OC1CCCC1)C(C)(C)C)C(=O)NS(=O)(=O)C1CC1
190,< 3,C=C[C@@H]1C[C@]1(NC(=O)[C@@H]1C[C@@H](n2cc(-c3ccc4c(c3)OCO4)nn2)CN1C(=O)[C@@H](NC(=O)OC1CCCC1)C(C)(C)C)C(=O)NS(=O)(=O)C1CC1
230,< 3,C=C[C@@H]1C[C@]1(NC(=O)[C@@H]1C[C@@H](n2cc(-c3ccc4c(c3)CCO4)nn2)CN1C(=O)[C@@H](NC(=O)OC1CCCC1)C(C)(C)C)C(=O)NS(=O)(=O)C1CC1
220,< 3,C=C[C@@H]1C[C@]1(NC(=O)[C@@H]1C[C@@H](n2cc(-c3ccccc3Cl)nn2)CN1C(=O)[C@@H](NC(=O)OC1CCCC1)C(C)(C)C)C(=O)NS(=O)(=O)C1CC1
270,< 3,C=C[C@@H]1C[C@]1(NC(=O)[C@@H]1C[C@@H](n2cc(-c3ccc(N(C)C)cc3)nn2)CN1C(=O)[C@@H](NC(=O)OC1CCCC1)C(C)(C)C)C(=O)NS(=O)(=O)C1CC1
> 7300,< 3,C=C[C@@H]1C[C@]1(NC(=O)[C@@H]1C[C@@H](n2cc(-c3ccc(S(C)(=O)=O)cc3)nn2)CN1C(=O)[C@@H](NC(=O)OC1CCCC1)C(C)(C)C)C(=O)NS(=O)(=O)C1CC1
,130,C=C[C@@H]1C[C@]1(NC(=O)[C@@H]1C[C@@H](n2cc(-c3ccc4c(c3)CCO4)nn2)CN1C(=O)[C@@H](NC(=O)OC1CCCC1)C(C)(C)C)C(=O)O
170,< 3,C=C[C@@H]1C[C@]1(NC(=O)[C@@H]1C[C@@H](n2cc(-c3cccc(Cl)c3)nn2)CN1C(=O)[C@@H](NC(=O)OC1CCCC1)C(C)(C)C)C(=O)NS(=O)(=O)C1CC1
210,< 3,C=C[C@@H]1C[C@]1(NC(=O)[C@@H]1C[C@@H](n2cc(-c3cccc(Br)c3)nn2)CN1C(=O)[C@@H](NC(=O)OC1CCCC1)C(C)(C)C)C(=O)NS(=O)(=O)C1CC1
430,2.7,C=C[C@@H]1C[C@]1(NC(=O)[C@@H]1C[C@@H](n2cc(-c3ccccc3)nn2)CN1C(=O)[C@@H](NC(=O)OC1CCCC1)C(C)(C)C)C(=O)NS(=O)(=O)C1CC1
